Reference: patent US20230391786A1, “cGAS INHIBITORS” (Eli Lilly and Company, priority 2022, published 2023)

What was measured:
[1] = test system: cGAS activity in THP1 cells (IFNb as marker); assay: Cellular assay to measure cGAS activity (IFNb production in PMA-differentiated THP1 cells stimulated by RDG-Adenovirus-GFP); format: cell-based, human; settings: Homo sapiens, THP-1, THP1 cells, PMA differentiated, RDG-Adenovirus-GFP 1000 MOI, IFNb AlphaLISA, overnight incubation; read-out: IC50 (μM), Cellular assay for Compounds 95-348
In short: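 PMA-differentiated THP1 cells were infected with RDG-Adenovirus-GFP at 1000 MOI for 4 h, then exposed overnight to test compounds. IFNb in the supernatant was quantified by AlphaLISA as a cGAS activity marker, and IC50 was fitted with a 4-parameter logistic equation.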

recombinant human cGAS = recombinant human cGAS (Homo sapiens (Human), UniProt Q8N884); assay: In vitro inhibition assay of cGAS activity (cGAMP production, RapidFire mass spectrometry); format: biochemical; settings: 10 nM recombinant human cGAS, 60 nM 75-bp dsDNA, ATP, GTP, room temperature 3 hours, read-out: IC50 (μM), In vitro inhibition assay for Compounds 95-348
recombinant human cGAS, sequence (Q8N884 whole entry): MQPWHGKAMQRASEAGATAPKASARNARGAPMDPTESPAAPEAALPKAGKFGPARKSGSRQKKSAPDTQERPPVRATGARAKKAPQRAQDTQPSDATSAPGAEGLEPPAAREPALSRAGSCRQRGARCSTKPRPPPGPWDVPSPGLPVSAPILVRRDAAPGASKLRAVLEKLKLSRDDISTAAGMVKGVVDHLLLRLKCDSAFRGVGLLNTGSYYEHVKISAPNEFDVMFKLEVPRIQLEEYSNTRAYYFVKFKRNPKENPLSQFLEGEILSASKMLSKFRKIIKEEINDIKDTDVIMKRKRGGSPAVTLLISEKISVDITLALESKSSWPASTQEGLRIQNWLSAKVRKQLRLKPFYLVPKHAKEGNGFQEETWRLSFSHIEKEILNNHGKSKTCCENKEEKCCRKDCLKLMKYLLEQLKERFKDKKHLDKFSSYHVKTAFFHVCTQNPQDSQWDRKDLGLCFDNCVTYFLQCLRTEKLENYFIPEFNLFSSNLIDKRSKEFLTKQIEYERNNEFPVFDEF
In short: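 Full-length His6-tagged human cGAS (10 nM, E. coli-expressed) was incubated 3 h at room temperature with 60 nM 75-bp dsDNA, ATP, 50 μM GTP and compound at pH 7.5 with 5 mM MgCl2. cGAMP formation was measured by RapidFire mass spectrometry, and IC50 was taken from a 4-parameter logistic fit.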

Row | SMILES | IC50 [1] [µM] | IC50 (recombinant human cGAS) [µM]
1 | Cc1nc(C(=O)N2CCn3c(c(-c4cn[nH]c4)c4c(OCC#N)cc(Cl)c(Cl)c43)C2)no1 [Example 282, 2-((6,7-Dichloro-2-(5-methyl-1,2,4-oxadiazole-3-carbonyl)-10-(1H-pyrazol-4-yl)-1,2,3,4-tetrahydropyrazino[1,2-a]indol-9-yl)oxy)acetonitrile] | 2.99 | 0.00896
2 | Cn1cnc(C(=O)N2CCn3c(c(-c4cn[nH]c4)c4c(OCC#N)cc(Cl)c(Cl)c43)C2)n1 [Example 283, 2-((6,7-Dichloro-2-(1-methyl-1H-1,2,4-triazole-3-carbonyl)-10-(1H-pyrazol-4-yl)-1,2,3,4-tetrahydropyrazino[1,2-a]indol-9-yl)oxy)acetonitrile] | 4.27 | 0.0106
3 | N#CCOc1cc(Cl)c(Cl)c2c1c(-c1cn[nH]c1)c1n2CCN(C(=O)CN2CCOC2=O)C1 [Example 284, 2-((6,7-Dichloro-2-(2-(2-oxooxazolidin-3-yl)acetyl)-10-(1H-pyrazol-4-yl)-1,2,3,4-tetrahydropyrazino[1,2-a]indol-9-yl)oxy)acetonitrile] | 9.75 | 0.0124
4 | N#CCOc1cc(Cl)c(Cl)c2c1c(-c1cn[nH]c1)c1n2CCN(C(=O)[C@@H]2COCCO2)C1 [Example 285, (S)-2-((6,7-Dichloro-2-(1,4-dioxane-2-carbonyl)-10-(1H-pyrazol-4-yl)-1,2,3,4-tetrahydropyrazino[1,2-a]indol-9-yl)oxy)acetonitrile] | 1.19 | 0.0126
5 | N#CCOc1cc(Cl)c(Cl)c2c1c(-c1cn[nH]c1)c1n2CCN(C(=O)c2cnccn2)C1 [Example 286, 2-((6,7-Dichloro-2-(pyrazine-2-carbonyl)-10-(1H-pyrazol-4-yl)-1,2,3,4-tetrahydropyrazino[1,2-a]indol-9-yl)oxy)acetonitrile] | 0.455 | 0.0131
6 | N#CCOc1cc(Cl)c(Cl)c2c1c(-c1cn[nH]c1)c1n2CCN(C(=O)Cn2cncn2)C1 [Example 287, 2-((2-(2-(1H-1,2,4-Triazol-1-yl)acetyl)-6,7-dichloro-10-(1H-pyrazol-4-yl)-1,2,3,4-tetrahydropyrazino[1,2-a]indol-9-yl)oxy)acetonitrile] | 5.11 | 0.0203
7 | N#CCOc1cc(Cl)c(Cl)c2c1c(-c1cn[nH]c1)c1n2CCN(C(=O)C2COCCO2)C1 (stereo not shown) [Example 288, 2-((6,7-Dichloro-2-(1,4-dioxane-2-carbonyl)-10-(1H-pyrazol-4-yl)-1,2,3,4-tetrahydropyrazino[1,2-a]indol-9-yl)oxy)acetonitrile] | 0.56 | 0.0242
8 | N#CCOc1cc(Cl)c(Cl)c2c1c(-c1cn[nH]c1)c1n2CCN(C(=O)CN2CCOCC2)C1 [Example 289, 2-((6,7-Dichloro-2-(2-morpholinoacetyl)-10-(1H-pyrazol-4-yl)-1,2,3,4-tetrahydropyrazino[1,2-a]indol-9-yl)oxy)acetonitrile] | 3.73 | 0.0303
9 | N#CCOc1cc(Cl)c(Cl)c2c1c(-c1cn[nH]c1)c1n2CCN(C(=O)CN2CCOCC2=O)C1 [Example 290, 2-((6,7-Dichloro-2-(2-(3-oxomorpholino)acetyl)-10-(1H-pyrazol-4-yl)-1,2,3,4-tetrahydropyrazino[1,2-a]indol-9-yl)oxy)acetonitrile] | 6.97 | 0.0321
10 | CN1CC(C(=O)N2CCn3c(c(-c4cn[nH]c4)c4c(OCC#N)cc(Cl)c(Cl)c43)C2)CC1=O (stereo not shown) [Example 291, 2-((6,7-Dichloro-2-(1-methyl-5-oxopyrrolidine-3-carbonyl)-10-(1H-pyrazol-4-yl)-1,2,3,4-tetrahydropyrazino[1,2-a]indol-9-yl)oxy)acetonitrile] | 4.91 | 0.0325
11 | N#CCOc1cc(Cl)c(Cl)c2c1c(-c1cn[nH]c1)c1n2CCN(C(=O)CCn2cncn2)C1 [Example 292, 2-((2-(3-(1H-1,2,4-Triazol-1-yl)propanoyl)-6,7-dichloro-10-(1H-pyrazol-4-yl)-1,2,3,4-tetrahydropyrazino[1,2-a]indol-9-yl)oxy)acetonitrile] | 4.08 | 0.0365
12 | Cc1nc(C)n(CC(=O)N2CCn3c(c(-c4cn[nH]c4)c4c(OCC#N)cc(Cl)c(Cl)c43)C2)n1 [Example 293, 2-((6,7-Dichloro-2-(2-(3,5-dimethyl-1H-1,2,4-triazol-1-yl)acetyl)-10-(1H-pyrazol-4-yl)-1,2,3,4-tetrahydropyrazino[1,2-a]indol-9-yl)oxy)acetonitrile] | > 10 | 0.0447
13 | CN1CCOC(C(=O)N2CCn3c(c(-c4cn[nH]c4)c4c(OCC#N)cc(Cl)c(Cl)c43)C2)C1 (stereo not shown) [Example 294, 2-((6,7-Dichloro-2-(4-methylmorpholine-2-carbonyl)-10-(1H-pyrazol-4-yl)-1,2,3,4-tetrahydropyrazino[1,2-a]indol-9-yl)oxy)acetonitrile] | 0.366 | 0.0479
14 | N#CCOc1cc(Cl)c(Cl)c2c1c(-c1cn[nH]c1)c1n2CCN(C(=O)c2nccnc2C(=O)N2CCCCC2)C1 [Example 295, 2-((6,7-Dichloro-2-(3-(piperidine-1-carbonyl)pyrazine-2-carbonyl)-10-(1H-pyrazol-4-yl)-1,2,3,4-tetrahydropyrazino[1,2-a]indol-9-yl)oxy)acetonitrile] | 2.14 | 0.0561
15 | N#CCOc1cc(Cl)c(Cl)c2c1c(-c1cn[nH]c1)c1n2CCN(C(=O)c2nccnc2C(=O)N2CCOCC2)C1 [Example 296, 2-((6,7-Dichloro-2-(3-(morpholine-4-carbonyl)pyrazine-2-carbonyl)-10-(1H-pyrazol-4-yl)-1,2,3,4-tetrahydropyrazino[1,2-a]indol-9-yl)oxy)acetonitrile] | 4.78 | 0.061
16 | NC(=O)CCC(=O)N1CCn2c(c(-c3cn[nH]c3)c3ccc(Cl)c(Cl)c32)C1 [Example 297, 4-(6,7-Dichloro-10-(1H-pyrazol-4-yl)-3,4-dihydropyrazino[1,2-a]indol-2(1H)-yl)-4-oxobutanamide] | > 10 | 0.0251
17 | O=C(CC1COCCOC1)N1CCn2c(c(-c3cn[nH]c3)c3ccc(Cl)c(Cl)c32)C1 [Example 298, 1-(6,7-Dichloro-10-(1H-pyrazol-4-yl)-3,4-dihydropyrazino[1,2-a]indol-2(1H)-yl)-2-(1,4-dioxepan-6-yl)ethan-1-one] | > 10 | 0.0234
18 | O=C(CC1COCCO1)N1CCn2c(c(-c3cn[nH]c3)c3ccc(Cl)c(Cl)c32)C1 (stereo not shown) [Example 299, 1-(6,7-Dichloro-10-(1H-pyrazol-4-yl)-3,4-dihydropyrazino[1,2-a]indol-2(1H)-yl)-2-(1,4-dioxan-2-yl)ethan-1-one] | > 10 | 0.0257
19 | CN1CCC(CC(=O)N2CCn3c(c(-c4cn[nH]c4)c4ccc(Cl)c(Cl)c43)C2)C1=O (stereo not shown) [Example 300, 3-(2-(6,7-Dichloro-10-(1H-pyrazol-4-yl)-3,4-dihydropyrazino[1,2-a]indol-2(1H)-yl)-2-oxoethyl)-1-methylpyrrolidin-2-one] | > 10 | 0.0288
20 | CN(C)C(=O)COCC(=O)N1CCn2c(c(-c3cn[nH]c3)c3ccc(Cl)c(Cl)c32)C1 [Example 301, 2-(2-(6,7-Dichloro-10-(1H-pyrazol-4-yl)-3,4-dihydropyrazino[1,2-a]indol-2(1H)-yl)-2-oxoethoxy)-N,N-dimethylacetamide] | > 10 | 0.0291
21 | CN(C)C(=O)CC(=O)N1CCn2c(c(-c3cn[nH]c3)c3ccc(Cl)c(Cl)c32)C1 [Example 302, 3-(6,7-Dichloro-10-(1H-pyrazol-4-yl)-3,4-dihydropyrazino[1,2-a]indol-2(1H)-yl)-N,N-dimethyl-3-oxopropanamide] | 6.95 | 0.0323
22 | CN1CCC(C(=O)N2CCn3c(c(-c4cn[nH]c4)c4ccc(Cl)c(Cl)c43)C2)CC1=O (stereo not shown) [Example 303, 4-(6,7-Dichloro-10-(1H-pyrazol-4-yl)-1,2,3,4-tetrahydropyrazino[1,2-a]indole-2-carbonyl)-1-methylpiperidin-2-one] | > 10 | 0.0349
23 | O=C1COCCN1CCC(=O)N1CCn2c(c(-c3cn[nH]c3)c3ccc(Cl)c(Cl)c32)C1 [Example 304, 4-(3-(6,7-Dichloro-10-(1H-pyrazol-4-yl)-3,4-dihydropyrazino[1,2-a]indol-2(1H)-yl)-3-oxopropyl)morpholin-3-one] | 8.47 | 0.0351
24 | CN1CC(C(=O)N2CCn3c(c(-c4cn[nH]c4)c4ccc(Cl)c(Cl)c43)C2)CCC1=O (stereo not shown) [Example 305, 5-(6,7-Dichloro-10-(1H-pyrazol-4-yl)-1,2,3,4-tetrahydropyrazino[1,2-a]indole-2-carbonyl)-1-methylpiperidin-2-one] | > 10 | 0.0378
25 | COCCOCC(=O)N1CCn2c(c(-c3cn[nH]c3)c3ccc(Cl)c(Cl)c32)C1 [Example 306, 1-(6,7-Dichloro-10-(1H-pyrazol-4-yl)-3,4-dihydropyrazino[1,2-a]indol-2(1H)-yl)-2-(2-methoxyethoxy)ethan-1-one] | > 10 | 0.0379
26 | O=C(CN1C(=O)CSC1=O)N1CCn2c(c(-c3cn[nH]c3)c3ccc(Cl)c(Cl)c32)C1 [Example 307, 3-(2-(6,7-Dichloro-10-(1H-pyrazol-4-yl)-3,4-dihydropyrazino[1,2-a]indol-2(1H)-yl)-2-oxoethyl)thiazolidine-2,4-dione] | > 10 | 0.0398
